Legend:
Subjects with RLS = experiment: Medical Outcomes Study (MOS) Sleep Scale, placebo-controlled study in RLS subjects; assay type: in vivo, human
Procedure: (§1) The study multi-centre, randomized, double-blind, parallel-groups, placebo-controlled study with 2 treatment arms, oral HPPD inhibitor (2-(2-nitro-4-trifluoromethylbenzoyl)-1,3-cyclohexanedione) and placebo. Subjects were randomized to either treatment with an HPPD inhibitor or placebo in a 2:1 ratio. The subjects were dosed with 4 mg on day 1, and 2 mg/day on days 2-14. The total duration of treatment with study drug for each subject was 14 consecutive days ending at the day of the final sleep lab assessment (Day 14), with a follow-up examination 29 days after Baseline.
(§2) Efficacy parameters were changes between Baseline and end of treatment in objective measures of Periodic Limb Movements (PLM) and sleep efficiency and in investigator evaluations of severity of RLS symptoms as well as in subject's report on severity of RLS symptoms, sleep disturbances and depressive feelings. Parameters measured included: • Periodic Limb Movement (PLM) Index, defined as the number of PLM events occurring during time-in-bed (PLMI/h TIB) • Periodic Limb Movements during Sleep Index, defined as the number of PLMs per hour of total sleep time (PLMSI/h TST) • PLM arousal index, defined as the number of PLM with arousals per hour of total sleep time (PLMSAI/h TST) • Periodic Limb Movements during wakefulness index, defined as the number of PLMs per hour occurring during wakefulness within time-in-bed (PLMWI/h TIB) • Sleep Efficiency (SE) expressed as the percentage total sleep time (TST) of total time in bed (TIB) • Total Sleep Time (TST) • Total number of arousals per TST • Sleep latency • Restless Legs Scale—6 items (RLS-6) (Kohnen et al, 2004) • IRLS total score change from start of treatment to end • Time to requiring rescue medication (defined as time to dropout due to the need of rescue medication for intolerable RLS symptoms) • Physicians' Global Impression, rated by the Clinical Global Impressions Scale (CGI): severity, change and treatment effect • CGI responders defined as the proportion of subjects who improved “much” or “very much” on CGI item “change”. • Patients' Global Impression (PGI) scale Item 1 (efficacy) • Medical Outcomes Study (MOS) Sleep Scale • Beck Depression Inventory (BDI) • In addition, a patient diary was to be completed between days 8 and 15 • HPPD inhibitor plasma concentrations at Baseline, end of treatment and follow-up • Tyrosine plasma concentration at Baseline, end of treatment and follow-up.
Subjects with RLS received either placebo (7 subjects) or an HPPD inhibitor (13 subjects) given as 4 mg on day 1, then 2 mg per day for days 2-14 of the trial. Various parameters relevant to RLS were monitored during the course of treatment, in particular the quality of their sleep patterns using a standard assessment scale (Medical Outcomes Study (MOS) Sleep Scale). Individuals were asked to complete a standard evaluation of their ‘normal’ sleep experience at the start of the trial (Baseline) and again at the end of treatment (EoT), with the various parameters scored according to the attached document.
The MOS Sleep Scale is a comprehensive subject completed sleep questionnaire consisting of 12 items (Hays and Stewart, 1992; Hays et al., 2005). Each item measures a unique aspect or characteristic of sleep. Overall, the MOS Sleep Scale measures the following:
All items, except for item 2, were transformed in a ‘0-100’ scale.
For the analysis of the MOS sleep scale, the following subscales were determined as means of the involved items (in part, after reversing the ratings in the ‘0-100’ scale, denoted by (R) in the item sequence):
Subjects self-reported the length of time it took for them to fall asleep and the average number of hours of sleep each night. Scores for all other items range from 1 (all of the time) to 6 (none of the time).
The MOS Sleep Scale was completed at Baseline (Visit 2) and final examination (Visit 3).

[1] = system: moderate to severe idiopathic RLS subjects; experiment: Patient diary of RLS symptoms; assay type: in vivo, human
Procedure: as §1
(§3) The objective of this exploratory study was to show proof-of-concept of therapy with an exemplary HPPD inhibitor in moderate to severe idiopathic RLS subjects.
as §2

[2] = Plasma level of HPPD inhibitor and plasma tyrosine at steady state, 2 mg QD vs. 2 mg Q2D (FIG. 3); assay type: in vivo
Procedure: FIG. 3 is a graphical comparison of the mean plasma level of an exemplary HPPD inhibitor with plasma tyrosine at steady state following 2 mg QD vs. 2 mg Q2D dosing.
FIG. 3 provides an example of plasma tyrosine levels which are essentially identical and independent of whether the HPPD inhibitor is administered once a day or once every two days.

[3] = system: moderate to severe idiopathic RLS subjects; experiment: Restless Legs Scale - 6 items (RLS-6); assay type: in vivo, human
Procedure: as §1, §3
(§4) Efficacy parameters were changes between Baseline and end of treatment in objective measures of Periodic Limb Movements (PLM) and sleep efficiency and in investigator evaluations of severity of RLS symptoms as well as in subject's report on severity of RLS symptoms, sleep disturbances and depressive feelings. […]

[4] = system: moderate to severe idiopathic RLS subjects; experiment: Patients' Global Impression (PGI) scale Item 1 (efficacy); assay type: in vivo, human
Procedure: as §1, §3, §4

[5] = system: moderate to severe idiopathic RLS subjects; experiment: PSG measurements, Periodic Limb Movement (PLM) index; assay type: in vivo, human; conditions: log-transformed values on PSG measurements
Procedure: as §1, §3, §4

[6] = M-ITT, HPPD inhibitor vs placebo
[7] = change from Baseline to EoT, PPS n = 13

O=C1CCCC(=O)C1C(=O)c1ccc(C(F)(F)F)cc1[N+](=O)[O-] [HPPD Inhibitor, 2-(2-nitro-4-trifluoromethylbenzoyl)-1,3-cyclohexanedione]
MOS sleep disturbance: difference HPPD inhibitor—placebo, LS mean (Subjects with RLS; M-ITT, 95%-CI: −35.53, 0.93, p=0.0616 two-sided from ANCOVA): −17.30 | MOS sleep problems index II: difference HPPD inhibitor—placebo, LS mean (Subjects with RLS; M-ITT, 95%-CI: −36.18, 2.61, p=0.0857 two-sided from ANCOVA): −16.78 | MOS sleep problems index I: difference HPPD inhibitor—placebo, LS mean (Subjects with RLS; M-ITT, 95%-CI: −37.80, 0.31, p=0.0534 two-sided from ANCOVA): −18.75 | MOS sleep adequacy: effect size d (Subjects with RLS; [6]): 0.50 | MOS sleep disturbance: effect size d (Subjects with RLS; [6]): 0.55 | MOS sleep problems index I: effect size d (Subjects with RLS; [6]): 0.54 | MOS sleep problems index II: effect size d (Subjects with RLS; [6]): 0.41 | MOS Short of Breath Scale, change, M ± SD (Subjects with RLS; [7]): −7.7 ± 19.2 | MOS Short of Breath Scale, change, Median (Subjects with RLS; [7]): 0.0 | MOS Short of Breath Scale, change, Range (Subjects with RLS; [7]): −40.0-20.0 | MOS Sleep Adequacy Scale, change, M ± SD (Subjects with RLS; [7]): 26.9 ± 35.5 | MOS Sleep Adequacy Scale, change, Median (Subjects with RLS; [7]): 30.0 | MOS Sleep Adequacy Scale, change, Range (Subjects with RLS; [7]): −50.0-80.0 | MOS Sleep Disturbance Scale, change, M ± SD (Subjects with RLS; [7]): −35.0 ± 27.5 | MOS Sleep Disturbance Scale, change, Median (Subjects with RLS; [7]): −46.3 | MOS Sleep Disturbance Scale, change, Range (Subjects with RLS; [7]): −68.8-11.3 | MOS Sleep Problems Index I, change, M ± SD (Subjects with RLS; [7]): −23.8 ± 20.3 | MOS Sleep Problems Index I, change, Median (Subjects with RLS; [7]): −20.0 | MOS Sleep Problems Index I, change, Range (Subjects with RLS; [7]): −60.0-3.3 | MOS Sleep Problems Index II, change, M ± SD (Subjects with RLS; [7]): −25.5 ± 19.9 | MOS Sleep Problems Index II, change, Median (Subjects with RLS; [7]): −23.9 | MOS Sleep Problems Index II, change, Range (Subjects with RLS; [7]): −61.7-−1.7 | MOS Sleep Quantity, change, M ± SD (Subjects with RLS; [7]): 1.8 ± 1.1 h | MOS Sleep Quantity, change, Median (Subjects with RLS; [7]): 2.0 h | MOS Sleep Quantity, change, Range (Subjects with RLS; [7]): 0.0 to 3.0 h | MOS Snoring Scale, change, M ± SD (Subjects with RLS; [7]): −6.2 ± 15.0 | MOS Snoring Scale, change, Median (Subjects with RLS; [7]): 0.0 | MOS Snoring Scale, change, Range (Subjects with RLS; [7]): −40.0-20.0 | MOS Somnolence Scale, change, M ± SD (Subjects with RLS; [7]): −10.3 ± 16.0 | MOS Somnolence Scale, change, Median (Subjects with RLS; [7]): −13.3 | MOS Somnolence Scale, change, Range (Subjects with RLS; [7]): −33.3-13.3 | patient diary, RLS symptoms during the day when active: difference drug-placebo, LS mean ([1]; M-ITT, 95%-CI: −2.52, −0.04, p=0.0437 two-sided from ANCOVA): −1.28 | patient diary, RLS symptoms during the day: difference drug-placebo, LS mean ([1]; M-ITT, 95%-CI: −4.87, −0.27, p=0.0304 two-sided from ANCOVA): −2.57 | patient diary, RLS symptoms when falling asleep: difference drug-placebo, LS mean ([1]; M-ITT, 95%-CI: −5.15, −0.13, p=0.0402 two-sided from ANCOVA): −2.64 | patient diary, improvement of RLS symptoms during the night and during the day at rest, or during inactivity ([1]; vs placebo): Trends were found | steady state plasma tyrosine levels, once a day vs once in two days ([2]; 2 mg once a day vs 2 mg once in 2 days): substantially similar | plasma levels of the HPPD inhibitor, once in two day regimen vs once a day ([2]; 2 mg once in 2 days vs 2 mg once a day, steady state): lower | RLS-6, all subscales: median (mean) differences between Baseline and EoT vs placebo ([3]; Baseline to EoT): more benefit than those treated with placebo | RLS-6 RLS symptoms during the night: difference drug-placebo, LS mean ([3]; M-ITT, 95%-CI: −4.52, 0.97, p=0.1910 two-sided from ANCOVA): −1.77 | RLS-6 RLS symptoms when falling asleep: difference drug-placebo, LS mean ([3]; M-ITT, 95%-CI: −5.24, −0.01, p=0.0494 two-sided from ANCOVA): −2.62 | PGI: subjects who assessed their therapy as efficacious, number ([4]; placebo 2): 7 subjects | PGI: subjects who assessed their therapy as efficacious, percentage ([4]; placebo 28.6%): 50.0% | PLM index values, improvement as compared to placebo [5]: slightly larger improvement

Reference: patent US20100160295A1, “TREATMENT OF RESTLESS LEG SYNDROME AND SLEEP DISORDERS” (SYNOSIA THERAPEUTICS, priority 2008, published 2010)
